Source: patent publication US20120122908A1, “Novel C-4 Substituted Retinoids” (University of Maryland, priority 2000, published 2012)
Read-outs that look alike come from different tables or passages of the source.

Legend:
ATRA 4-hydroxylase = ATRA 4-hydroxylase (Mesocricetus auratus, UniProt A0A1U7QD41); assay: Hamster liver microsome assay of ATRA metabolism (ATRA 4-hydroxylase inhibition); type: biochemical
Procedure: Washed hamster liver microsomes were prepared as follows: Livers are removed from sacrificed animals, rinsed in ice-cold 0.9% NaCl solution and homogenized in a 3-fold volume of 0.25 M sucrose-0.05 M Tris-HCl (pH 7.4) using a blender. Microsomes are isolated by differential centrifugation (10,000×g, 20 minutes; 100,000×g, 60 minutes; 4° C.) using a well-known technique (Van Wauwe, J.; Van Nyen, G.; Coene, M-C.; Stoppie, P.; Cols, W.; Goossens, J, Borghgraef, P.; Janssen, P A J, Liarozole, an Inhibitor of Retinoic Acid Metabolism, Exerts Retinoid-Mimetic Effects, In Vivo. J. Pharmacol. Expt. Ther. 261, 773-779, 1992). The microsomes are suspended in PBS buffer (pH 7.4), in 1 ml aliquots and stored at −70° C. until required.
The standard reaction mixture (total of 400 μl) is composed of assay buffer, 140 μl; microsomes, 100 μl ([…]); NADPH, 100 μl ([…]); and a C-4 substituted ATRA analog dissolved in DMSO, 40 μl. After a 3 minute preincubation at 37° C., the reaction is initiated by addition of 20 μl of [11,12-^3H]-ATRA (20 μCi/ml). The incubation is carried out for 30 minutes under oxygen with shaking in a water bath at 37° C. The reaction is stopped by acidification with 0.1 ml formic acid, and the samples are extracted (×2) with EtOAc (2 ml) containing 0.05% butylated hydroxyanisole. The combined organic extracts are evaporated in vacuo, dissolved in 200 μl of the mobile phase for HPLC. An aliquot is analyzed for tritium content by liquid scintillation spectrometry. Usually, >95% of the added radioactivity is recovered. Most of the samples (150 μl) are analyzed on a 10 (m C18 Bondapak column (3.9×300 mm, Millipore), eluted with a multi-linear gradient solvent system: i, MeOH—H2O—HCOOH (60:40:0.05) containing 10 mM ammonium acetate (100 (0%) and ii, MeOH (0 (100%) at 2 ml/min. The radioactivity is measured by an on-line radio-detector. The Rts of ATRA, 4-hydroxy-ATRA and 4-oxo-ATRA are determined by UV absorbance at 350 nm in separate cuvettes. Typically, 80±5% of [11, 12-^3H]ATRA is converted into the metabolites.
The C-4 substituted ATRA analogs are tested at two concentrations, 500 and 1000 nM. IC50 and Ki values are determined.
Incubation of [11,12-^3]ATRA with hamster liver microsomes as described above results in the formation of polar metabolites, including 4-hydroxy-ATRA and 4-oxo-ATRA (see FIG. 7A). […] VN/14-1RA inhibits cytochrome P450-dependent metabolism of ATRA.
Table 2B represents repeated testing of some of the compounds in Table 2A and testing on additional compounds. For comparison, the IC50 values of liarozole and ketoconazole (known inhibitors of ATRA 4-hydroxylase) were also determined.

PC-3 tumors = assay: Growth of PC-3 tumors in male nude mice; type: in vivo; conditions: PC-3 xenografts
Procedure: FIG. 20: Effect of ATRA and VN/50A-1 on PC 3 Tumor Volumes in Male Nude Mice
The effects of VN/50A-1 on tumor growth was determined in mouse xenografts and compared to ATRA as the reference treatment (FIG. 20). Mice were grouped 35 days after cell inoculation when measurable tumor volume was approximately 500 mm^3. Total tumor volume in the control mice increased 5.4-fold over 7 weeks and tumor volume in the mice treated with ATRA increased by 3.2-fold (41% reduction compared with control). In the mice treated with VN/50A-1, tumor volume increased by 3.5-fold, which was 38% reduction versus control mice, which correlated well with accumulation of ATRA in plasma and in tumors. […] VN/50A-1 is completely eliminated from plasma within 3 hour of administration to mice (see FIG. 18). The inventive compounds with longer half-lives will have favorable bioavailability and are expected to be more efficacious.

LNCaP cells = assay: LNCaP cell growth, compound in combination with ATRA; type: cell-based, human; conditions: 10^−8 to 10^−5 M in combination with 10^−5 M ATRA, compared with no drug or ATRA only
Procedure: LNCaP cells are androgen-dependent cell cultures. PC-3 cells are androgen independent cell culture.
LNCaP cells are transferred into ATRA-free medium 3 days prior to start of experiments. Medium consist of phenol red-free IMEM supplemented with 5% FBS and 1% P/S. Cell are then plated into 24-well culture plates (15000 cells per well) in 1 mL of same medium. After a 24-hour attachment period, the vehicle (ethanol) or ATRA (10^−5 M) alone or ATRA in combination with a novel compound at a range of concentrations are added to triplicate wells. Medium/treatments are changed every 3 days. After 9 days of treatment, cells are removed from the wells with typsin/EDTA and counted in a Coulter counter. Using well-known methods (Wouters W, Van Dun J, Dillen A, Coene M.-C, Cools W and De Coster R, Effects of liarozole, a new antitumoral compound an retinoic acid-induced inhibition of cell growth and on retinoic acid metabolism in MCF-7 breast cancer cells, Cancer Res 52: 2841-2846, 1992), one determines the inhibitory effect of the novel compounds on LNCaP cells grown with ATRA.

Sequence of ATRA 4-hydroxylase (A0A1U7QD41 entry or part of it): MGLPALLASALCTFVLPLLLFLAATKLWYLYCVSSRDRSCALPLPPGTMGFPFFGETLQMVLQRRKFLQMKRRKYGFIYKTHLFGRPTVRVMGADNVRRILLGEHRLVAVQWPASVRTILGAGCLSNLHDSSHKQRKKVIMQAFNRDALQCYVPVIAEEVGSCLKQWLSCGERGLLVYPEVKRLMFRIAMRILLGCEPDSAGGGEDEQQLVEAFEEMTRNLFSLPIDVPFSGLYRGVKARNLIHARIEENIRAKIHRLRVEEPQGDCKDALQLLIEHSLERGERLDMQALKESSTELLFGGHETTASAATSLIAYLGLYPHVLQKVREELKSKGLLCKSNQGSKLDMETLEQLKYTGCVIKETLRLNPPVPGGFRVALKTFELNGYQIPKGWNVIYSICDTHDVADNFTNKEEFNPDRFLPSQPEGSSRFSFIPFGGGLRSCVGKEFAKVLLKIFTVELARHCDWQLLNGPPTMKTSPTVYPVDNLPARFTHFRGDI

SMILES	fold more potent than liarozole (ATRA 4-hydroxylase; ratio of IC50 values, liarozole IC50 6,000 nM)	tumor weights versus control mice (PC-3 tumors)	reduction of tumor volume compared with control (PC-3 tumors; over 7 weeks) [%]	increase of total tumor volume (PC-3 tumors; over 7 weeks, control 5.4-fold) [fold]	microsomal conversion of ATRA to polar metabolites (ATRA 4-hydroxylase; 1 μM compound, hamster liver microsomes, FIG. 7B)	IC50 (ATRA 4-hydroxylase; hamster liver microsomes, Table 2A, initial testing, read-out: IC50 Value) [nM]	IC50 (ATRA 4-hydroxylase; hamster liver microsomes, Table 2B, repeated testing and additional compounds, read-out: IC50 Value, Inhibition of ATRA 4-Hydroxylase) [nM]	inhibition of proliferation of LNCaP cells (LNCaP cells)
CC(C=CC1=C(C)C(n2ccnc2)CCC1(C)C)=CC=CC(C)=CC(=O)n1ccnc1 (centres unmarked) [VN/50A-1]	240,000 fold	significantly (P<0.05) lower	38	3.5	–	–	–	–
CC1=C(/C=C/C(C)=C/C=C/C(C)=C/C(=O)O)C(C)(C)CCC1n1ccnc1 (racemic) [VN/14-1, (±)-4-(1H-imidazole-1-yl)retinoic acid]	–	–	–	–	significantly suppressed	100 ± 1	1.2 ± 0.072	inhibit the proliferation of LNCaP cells better than no drug or ATRA only
